The values that follow come from ChEMBL document CHEMBL3991601, “The target landscape of clinical kinase drugs” (Science, 2017).

The target in one experiment is LIM domain kinase 1 (Homo sapiens, UniProt P53667).
Experiment [1] deals with Citron Rho-interacting kinase (Homo sapiens, UniProt O14578).
Experiment [2] addresses T1, Mitogen-activated protein kinase kinase kinase 2 (Homo sapiens, UniProt Q9Y2U5).
T1 sequence (Q9Y2U5 whole entry): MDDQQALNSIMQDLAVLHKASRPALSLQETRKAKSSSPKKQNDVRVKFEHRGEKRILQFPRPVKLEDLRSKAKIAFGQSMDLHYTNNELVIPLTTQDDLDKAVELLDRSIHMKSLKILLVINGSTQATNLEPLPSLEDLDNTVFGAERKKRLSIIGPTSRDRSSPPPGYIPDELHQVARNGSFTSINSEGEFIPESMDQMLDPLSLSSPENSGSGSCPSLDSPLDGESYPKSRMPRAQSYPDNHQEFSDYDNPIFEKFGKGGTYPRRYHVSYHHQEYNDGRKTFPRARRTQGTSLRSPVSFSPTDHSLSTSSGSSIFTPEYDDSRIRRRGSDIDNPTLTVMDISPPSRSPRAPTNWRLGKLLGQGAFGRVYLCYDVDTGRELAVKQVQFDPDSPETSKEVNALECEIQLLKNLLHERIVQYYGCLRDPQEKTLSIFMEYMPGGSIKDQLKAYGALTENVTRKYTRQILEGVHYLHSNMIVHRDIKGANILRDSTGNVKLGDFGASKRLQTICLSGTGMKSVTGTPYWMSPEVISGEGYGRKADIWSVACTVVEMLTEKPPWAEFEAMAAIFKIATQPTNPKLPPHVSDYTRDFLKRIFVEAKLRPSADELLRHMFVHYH

The target of experiment [3] is T2, Interleukin-1 receptor-associated kinase 4 (Homo sapiens, UniProt Q9NWZ3).
T2 sequence (Q9NWZ3 whole entry): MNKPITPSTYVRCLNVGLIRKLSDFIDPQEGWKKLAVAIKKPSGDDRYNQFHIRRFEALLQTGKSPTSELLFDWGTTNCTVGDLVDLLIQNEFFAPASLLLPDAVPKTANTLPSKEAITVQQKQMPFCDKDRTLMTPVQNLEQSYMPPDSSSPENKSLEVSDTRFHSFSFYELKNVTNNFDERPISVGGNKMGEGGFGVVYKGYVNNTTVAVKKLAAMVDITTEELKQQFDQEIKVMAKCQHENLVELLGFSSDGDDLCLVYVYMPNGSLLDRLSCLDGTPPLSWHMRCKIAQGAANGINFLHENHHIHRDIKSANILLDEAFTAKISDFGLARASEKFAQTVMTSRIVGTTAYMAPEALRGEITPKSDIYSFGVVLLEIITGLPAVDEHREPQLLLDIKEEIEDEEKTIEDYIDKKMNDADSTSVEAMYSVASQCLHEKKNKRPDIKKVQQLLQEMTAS

The target of experiment [4] is T3, Dual specificity mitogen-activated protein kinase kinase 3 (Homo sapiens, UniProt P46734).
T3 sequence (P46734 whole entry): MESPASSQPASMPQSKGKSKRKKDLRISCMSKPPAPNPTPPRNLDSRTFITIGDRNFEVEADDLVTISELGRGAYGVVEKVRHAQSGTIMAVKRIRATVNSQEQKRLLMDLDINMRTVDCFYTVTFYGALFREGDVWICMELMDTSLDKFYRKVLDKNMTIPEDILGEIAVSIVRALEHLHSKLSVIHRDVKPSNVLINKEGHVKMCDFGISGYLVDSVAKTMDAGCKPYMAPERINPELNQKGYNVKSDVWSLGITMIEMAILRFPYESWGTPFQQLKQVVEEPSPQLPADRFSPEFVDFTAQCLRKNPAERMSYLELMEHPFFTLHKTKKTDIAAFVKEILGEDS

Experiment [5] has as its target Serine/threonine-protein kinase 10 (Homo sapiens, UniProt O94804).
Experiment [6] addresses T4, Serine/threonine-protein kinase A-Raf (Homo sapiens, UniProt P10398).
T4 sequence (P10398 whole entry): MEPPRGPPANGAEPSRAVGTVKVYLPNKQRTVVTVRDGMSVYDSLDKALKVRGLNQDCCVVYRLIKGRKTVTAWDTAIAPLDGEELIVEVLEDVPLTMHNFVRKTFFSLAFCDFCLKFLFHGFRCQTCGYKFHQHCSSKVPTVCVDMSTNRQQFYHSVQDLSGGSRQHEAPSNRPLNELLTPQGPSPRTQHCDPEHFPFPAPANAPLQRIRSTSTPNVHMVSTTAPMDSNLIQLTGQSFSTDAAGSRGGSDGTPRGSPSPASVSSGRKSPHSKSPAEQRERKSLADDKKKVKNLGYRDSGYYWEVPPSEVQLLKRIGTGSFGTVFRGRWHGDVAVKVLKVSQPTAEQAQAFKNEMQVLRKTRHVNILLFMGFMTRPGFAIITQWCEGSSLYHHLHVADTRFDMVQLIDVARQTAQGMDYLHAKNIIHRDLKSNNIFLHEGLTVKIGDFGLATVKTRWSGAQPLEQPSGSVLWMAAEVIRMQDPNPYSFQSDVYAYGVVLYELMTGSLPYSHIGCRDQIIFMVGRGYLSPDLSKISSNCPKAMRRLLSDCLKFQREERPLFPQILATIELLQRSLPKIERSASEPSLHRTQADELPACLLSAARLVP

Experiment [7] concerns the target Tyrosine-protein kinase Lck (Homo sapiens, UniProt P06239).

Each structure is given as a SMILES string. The source made the active and inactive calls. For most assays here, no stated cut-off is given here; in the data, actives have a measured Kd and inactives only a lower limit.

Tyrosine-protein kinase Lck, sequence (P06239 whole entry): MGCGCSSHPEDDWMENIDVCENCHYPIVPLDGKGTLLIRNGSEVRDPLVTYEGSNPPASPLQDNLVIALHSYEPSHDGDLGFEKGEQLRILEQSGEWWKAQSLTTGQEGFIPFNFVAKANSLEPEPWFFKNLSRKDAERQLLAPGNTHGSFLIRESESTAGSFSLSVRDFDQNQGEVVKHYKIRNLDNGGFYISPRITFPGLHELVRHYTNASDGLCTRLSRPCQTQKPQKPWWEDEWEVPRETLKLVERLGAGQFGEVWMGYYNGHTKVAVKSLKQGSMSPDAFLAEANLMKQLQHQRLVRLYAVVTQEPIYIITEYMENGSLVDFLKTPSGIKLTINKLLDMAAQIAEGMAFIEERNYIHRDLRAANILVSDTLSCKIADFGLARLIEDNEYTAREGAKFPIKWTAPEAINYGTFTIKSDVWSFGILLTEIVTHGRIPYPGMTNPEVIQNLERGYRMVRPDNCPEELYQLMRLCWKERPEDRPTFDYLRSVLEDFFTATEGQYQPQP
Citron Rho-interacting kinase, sequence (O14578 whole entry): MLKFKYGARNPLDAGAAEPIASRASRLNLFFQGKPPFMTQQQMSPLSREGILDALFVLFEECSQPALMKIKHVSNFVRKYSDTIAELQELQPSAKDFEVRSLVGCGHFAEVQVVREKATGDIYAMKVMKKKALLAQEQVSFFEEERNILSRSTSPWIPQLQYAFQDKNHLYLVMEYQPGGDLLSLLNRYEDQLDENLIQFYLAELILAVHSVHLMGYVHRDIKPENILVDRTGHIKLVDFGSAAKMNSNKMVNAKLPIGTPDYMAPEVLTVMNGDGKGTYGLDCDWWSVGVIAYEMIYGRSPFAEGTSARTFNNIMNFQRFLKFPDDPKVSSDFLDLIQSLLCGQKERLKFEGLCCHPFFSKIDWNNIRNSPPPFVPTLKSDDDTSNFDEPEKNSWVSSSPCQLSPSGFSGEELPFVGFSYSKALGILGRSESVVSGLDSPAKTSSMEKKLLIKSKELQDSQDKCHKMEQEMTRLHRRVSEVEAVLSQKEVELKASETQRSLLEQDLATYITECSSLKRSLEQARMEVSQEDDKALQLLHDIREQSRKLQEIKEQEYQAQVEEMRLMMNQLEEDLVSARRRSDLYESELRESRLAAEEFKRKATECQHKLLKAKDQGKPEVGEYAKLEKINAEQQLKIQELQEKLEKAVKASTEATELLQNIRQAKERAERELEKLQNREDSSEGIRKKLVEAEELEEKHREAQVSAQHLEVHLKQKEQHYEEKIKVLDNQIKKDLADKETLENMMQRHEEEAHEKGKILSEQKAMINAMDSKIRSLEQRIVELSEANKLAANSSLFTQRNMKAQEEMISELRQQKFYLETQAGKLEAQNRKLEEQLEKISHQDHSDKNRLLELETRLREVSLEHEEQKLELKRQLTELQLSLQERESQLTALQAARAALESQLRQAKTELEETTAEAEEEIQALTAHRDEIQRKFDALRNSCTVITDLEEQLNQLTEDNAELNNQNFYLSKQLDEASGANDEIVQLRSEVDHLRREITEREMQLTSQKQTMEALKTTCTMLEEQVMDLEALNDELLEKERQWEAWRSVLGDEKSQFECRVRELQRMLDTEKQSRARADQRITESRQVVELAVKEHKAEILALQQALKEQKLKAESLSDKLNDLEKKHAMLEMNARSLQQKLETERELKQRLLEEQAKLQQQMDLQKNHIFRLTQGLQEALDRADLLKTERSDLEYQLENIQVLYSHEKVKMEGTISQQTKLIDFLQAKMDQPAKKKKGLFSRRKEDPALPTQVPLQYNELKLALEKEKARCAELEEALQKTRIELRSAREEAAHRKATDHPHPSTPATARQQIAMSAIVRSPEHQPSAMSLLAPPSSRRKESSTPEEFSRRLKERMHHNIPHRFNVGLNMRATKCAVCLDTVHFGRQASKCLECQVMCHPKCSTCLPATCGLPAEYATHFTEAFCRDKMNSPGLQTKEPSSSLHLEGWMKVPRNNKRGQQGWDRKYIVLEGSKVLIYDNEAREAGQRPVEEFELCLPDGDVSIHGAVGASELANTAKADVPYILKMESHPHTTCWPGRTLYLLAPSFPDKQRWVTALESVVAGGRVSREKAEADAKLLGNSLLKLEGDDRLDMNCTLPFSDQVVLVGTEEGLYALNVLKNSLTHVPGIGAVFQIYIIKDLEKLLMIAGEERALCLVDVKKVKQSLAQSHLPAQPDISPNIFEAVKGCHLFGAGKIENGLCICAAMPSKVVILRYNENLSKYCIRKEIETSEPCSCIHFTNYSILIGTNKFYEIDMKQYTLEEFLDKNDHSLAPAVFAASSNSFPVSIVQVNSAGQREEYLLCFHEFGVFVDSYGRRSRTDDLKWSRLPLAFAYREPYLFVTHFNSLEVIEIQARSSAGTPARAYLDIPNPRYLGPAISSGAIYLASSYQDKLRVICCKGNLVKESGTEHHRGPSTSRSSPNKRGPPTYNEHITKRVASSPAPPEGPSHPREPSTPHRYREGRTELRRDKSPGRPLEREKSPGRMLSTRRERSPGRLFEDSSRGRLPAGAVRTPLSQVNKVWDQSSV
Serine/threonine-protein kinase 10, sequence (O94804 whole entry): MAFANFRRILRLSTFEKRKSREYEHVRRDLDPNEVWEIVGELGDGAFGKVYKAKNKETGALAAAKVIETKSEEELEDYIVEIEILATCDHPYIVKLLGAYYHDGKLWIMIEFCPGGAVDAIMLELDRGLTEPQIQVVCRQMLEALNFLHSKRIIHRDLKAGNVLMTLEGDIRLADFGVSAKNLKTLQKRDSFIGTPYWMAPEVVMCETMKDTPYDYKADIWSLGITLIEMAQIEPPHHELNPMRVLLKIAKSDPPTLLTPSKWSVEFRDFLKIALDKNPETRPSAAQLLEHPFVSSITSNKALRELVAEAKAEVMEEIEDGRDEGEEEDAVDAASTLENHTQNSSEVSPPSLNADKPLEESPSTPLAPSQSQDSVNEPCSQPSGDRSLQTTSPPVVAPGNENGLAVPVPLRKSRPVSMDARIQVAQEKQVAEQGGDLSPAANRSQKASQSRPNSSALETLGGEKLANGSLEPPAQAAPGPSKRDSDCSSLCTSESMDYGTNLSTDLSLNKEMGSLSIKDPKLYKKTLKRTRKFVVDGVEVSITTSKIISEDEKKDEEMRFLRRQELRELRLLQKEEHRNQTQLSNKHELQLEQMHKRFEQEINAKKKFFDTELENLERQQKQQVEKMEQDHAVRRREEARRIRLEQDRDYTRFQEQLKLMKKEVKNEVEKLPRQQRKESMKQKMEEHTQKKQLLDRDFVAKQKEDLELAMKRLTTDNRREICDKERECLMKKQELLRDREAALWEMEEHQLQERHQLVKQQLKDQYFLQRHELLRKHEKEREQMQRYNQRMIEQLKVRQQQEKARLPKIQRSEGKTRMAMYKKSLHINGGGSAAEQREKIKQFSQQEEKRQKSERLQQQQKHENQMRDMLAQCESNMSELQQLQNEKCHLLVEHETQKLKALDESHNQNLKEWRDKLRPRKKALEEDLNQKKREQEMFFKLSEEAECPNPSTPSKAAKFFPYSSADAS
LIM domain kinase 1, sequence (P53667 whole entry, the tested form may be a part): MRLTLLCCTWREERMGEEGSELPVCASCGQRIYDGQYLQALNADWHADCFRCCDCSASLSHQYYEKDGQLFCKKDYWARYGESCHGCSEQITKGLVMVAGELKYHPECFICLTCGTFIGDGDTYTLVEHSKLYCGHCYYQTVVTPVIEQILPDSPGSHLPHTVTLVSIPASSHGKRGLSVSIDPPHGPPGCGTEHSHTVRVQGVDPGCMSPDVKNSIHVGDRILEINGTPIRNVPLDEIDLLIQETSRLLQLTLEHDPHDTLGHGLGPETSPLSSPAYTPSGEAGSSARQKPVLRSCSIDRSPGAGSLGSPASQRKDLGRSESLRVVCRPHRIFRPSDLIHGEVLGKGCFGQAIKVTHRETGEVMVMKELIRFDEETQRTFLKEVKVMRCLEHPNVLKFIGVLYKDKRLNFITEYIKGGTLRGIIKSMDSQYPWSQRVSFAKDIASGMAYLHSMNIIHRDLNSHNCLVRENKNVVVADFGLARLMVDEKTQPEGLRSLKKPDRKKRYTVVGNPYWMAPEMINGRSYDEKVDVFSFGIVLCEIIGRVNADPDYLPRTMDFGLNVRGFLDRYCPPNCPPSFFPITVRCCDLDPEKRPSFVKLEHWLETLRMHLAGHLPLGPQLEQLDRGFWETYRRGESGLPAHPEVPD

One may read the Kd as the free concentration of one partner at which half of the binding sites on the other are occupied at equilibrium, for simple one-to-one binding. For the molecule `C[C@@H](Oc1cc(C(=O)Nc2ccc(C(=O)N3CCN(C)CC3)cc2)nnc1N)c1c(Cl)ccc(F)c1Cl`, the Kd (on LIM domain kinase 1; in experiment [1]; in experiment [2]; in experiment [3]; in experiment [4]; in experiment [5]) was > 30 µM (inactive) each time. Moreover, the Kd in experiment [6] and in experiment [7] was > 30 µM (inactive) throughout.

Regarding `C[C@H]1CNCCCN1S(=O)(=O)c1cccc2cncc(F)c12`, the Kd on LIM domain kinase 1 was > 30 µM (inactive); in experiment [1], > 30 µM (inactive); in experiment [2] it was > 30 µM (inactive); in experiment [3], > 30 µM (inactive); in experiment [4] it was 3.08 µM (active); in experiment [5], > 30 µM (inactive). Besides, the Kd in experiment [6] and in experiment [7] was > 30 µM (inactive) each time.

Regarding `Nc1ncnc2c1c(-c1cccc(OCc3ccccc3)c1)cn2[C@H]1C[C@@H](CN2CCC2)C1` [AEW-541], the Kd (at LIM domain kinase 1; in experiment [1]; in experiment [2]; in experiment [3]; in experiment [4]; in experiment [5]) was > 30 µM (inactive) each time. Moreover, the Kd in experiment [6] and in experiment [7] was > 30 µM (inactive) in each case.

On to `Cc1nc(NC(=O)N2CCC[C@H]2C(N)=O)sc1-c1ccnc(C(C)(C)C(F)(F)F)c1` [ALPELISIB], for which the Kd (at LIM domain kinase 1; in experiment [1]; in experiment [2]; in experiment [3]; in experiment [4]; in experiment [5]) was > 30 µM (inactive) in each case. For the same molecule, the Kd in experiment [6] and in experiment [7] was > 30 µM (inactive) in each case.

On to `Cc1csc(-c2nnc(Nc3ccc(Oc4ncccc4-c4ccnc(N)n4)cc3)c3ccccc23)c1` [AMG-900], for which the Kd at LIM domain kinase 1 is > 30 µM (inactive); in experiment [1], > 30 µM (inactive); in experiment [2] it was 1.97 µM (active); in experiment [3], > 30 µM (inactive); in experiment [4], > 30 µM (inactive); in experiment [5], > 30 µM (inactive). Also, the Kd in experiment [6] and in experiment [7] was > 30 µM (inactive) each time.

`C=CC(=O)Nc1cc2c(Nc3ccc(F)c(Cl)c3)ncnc2cc1C#CC(C)(C)N1CCN(C)CC1` [AV-412 FREE BASE]: the Kd on LIM domain kinase 1 was > 30 µM (inactive); in experiment [1], > 30 µM (inactive); in experiment [2] it was > 30 µM (inactive); in experiment [3] it was > 30 µM (inactive); in experiment [4], > 30 µM (inactive); in experiment [5] it was 28.6 µM (active). Further, the Kd in experiment [6] and in experiment [7] was > 30 µM (inactive) in each case.

As to `COc1cc([C@@H]2c3cc4c(cc3[C@H](O)[C@H]3COC(=O)[C@@H]23)OCO4)cc(OC)c1OC` [AXL-1717], the Kd (at LIM domain kinase 1; in experiment [1]; in experiment [2]; in experiment [3]; in experiment [4]; in experiment [5]) was > 30 µM (inactive) in each case. The Kd in experiment [6] and in experiment [7] was > 30 µM (inactive) in each case.

For `Cc1cc(C(=O)NOCCO)c(Nc2ccc(I)cc2F)n(C)c1=O` [AZD-8330], the Kd (at LIM domain kinase 1; in experiment [1]; in experiment [2]; in experiment [3]; in experiment [4]; in experiment [5]) was > 30 µM (inactive) each time. Further, the Kd in experiment [6] and in experiment [7] was > 30 µM (inactive) in each case.

Turning to `Cn1cnc2c(F)c(Nc3ccc(Br)cc3F)c(C(=O)NOCCO)cc21` [BINIMETINIB], the Kd (on LIM domain kinase 1; in experiment [1]; in experiment [2]; in experiment [3]; in experiment [4]; in experiment [5]) was > 30 µM (inactive) each time. The Kd in experiment [6] and in experiment [7] was > 30 µM (inactive) in each case.

`CCn1c(C(=O)N(C2CC2)C2CC2)cc2c3c(ncn3C)c(Nc3cc(C)n(C)n3)nc21` [BMS-911543]: the Kd (at LIM domain kinase 1; in experiment [1]; in experiment [2]; in experiment [3]; in experiment [4]; in experiment [5]) was > 30 µM (inactive) throughout. Further, the Kd in experiment [6] and in experiment [7] was > 30 µM (inactive) in each case.

Regarding `Cc1cc(Nc2ncc(Cl)c(Nc3ccccc3S(=O)(=O)C(C)C)n2)c(OC(C)C)cc1C1CCNCC1` [CERITINIB], the Kd (on LIM domain kinase 1; in experiment [1]; in experiment [2]; in experiment [3]; in experiment [4]; in experiment [5]) was > 30 µM (inactive) each time. The Kd in experiment [6] and in experiment [7] was > 30 µM (inactive) each time.

With `COc1c(OCCCN2CCOCC2)ccc2c1N=C(NC(=O)c1cnc(N)nc1)N1CCN=C21` [COPANLISIB], the Kd (on LIM domain kinase 1; in experiment [1]; in experiment [2]; in experiment [3]; in experiment [4]; in experiment [5]) was > 30 µM (inactive) throughout. For the same molecule, the Kd in experiment [6] and in experiment [7] was > 30 µM (inactive) in each case.

On to `COCC(=O)NC/C=C/c1ccc2ncnc(Nc3ccc(Oc4ccc(C)nc4)c(C)c3)c2c1` [CP-724714], for which the Kd (on LIM domain kinase 1; in experiment [1]; in experiment [2]; in experiment [3]; in experiment [4]; in experiment [5]) was > 30 µM (inactive) each time. In addition, the Kd in experiment [6] and in experiment [7] was > 30 µM (inactive) in each case.

With `C#Cc1cccc(Nc2ncnc3cc(OC)c(OCCCCCCC(=O)NO)cc23)c1` [CUDC-101], the Kd on LIM domain kinase 1 is > 30 µM (inactive); in experiment [1], > 30 µM (inactive); in experiment [2] it was > 30 µM (inactive); in experiment [3], > 30 µM (inactive); in experiment [4] it was > 30 µM (inactive); in experiment [5], 57.5 µM (active). Moreover, the Kd in experiment [6] and in experiment [7] was > 30 µM (inactive) throughout.
